TGI and GI50 data for 17 compounds are collected here from PubChem BioAssay (NCI).

Some test systems named below: SNB-19 CNS; CCRF-CEM leukemia; TK-10 renal; HCC-2998 colon; HCT-116 colon; SK-MEL-28 melanoma; SW-620 colon; ACHN renal; SR leukemia.
Holding throughout (assay): inhibition of tumour cell growth, NCI panel, 48 h

Structures are written as SMILES.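 In this assay, cells in 96-well plates receive the compound at five concentrations for 48 hours. Endpoints are linearly interpolated between the surrounding concentrations. GI50 = concentration required for 50% inhibition of growth. TGI: total growth inhibition.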 Bounds are passed on as bounds.

For `CC1(C)[C@@H]2CC[C@]1(C)[C@H](OC(=O)/C=C/c1ccccc1)C2`, the TGI in the experiment with SNB-19 CNS is 36.3 µM; in the experiment on CCRF-CEM leukemia it was 41.6 µM; with TK-10 renal, greater than 100 µM; in the experiment with HCC-2998 colon, 30.7 µM; in the experiment with HCT-116 colon it was 38.1 µM; in the experiment on SK-MEL-28 melanoma, 50.4 µM. For the same compound, the TGI in the experiment with SW-620 colon stood at 30.6 µM; in the experiment on ACHN renal it was 31.9 µM.

Turning to `Oc1ccc([C@H]2c3c(O)cc(O)cc3C3c4c(cc(O)cc4[C@@H]2[C@H]2c4cc(O)cc5c4C(c4cc(O)cc(O)c4[C@@H]2c2ccc(O)cc2)[C@@H](c2ccc(O)cc2)O5)O[C@@H]3c2ccc(O)cc2)cc1` (stereo partly drawn), the TGI was greater than 100 µM in the experiment with SNB-19 CNS; greater than 100 µM with CCRF-CEM leukemia; greater than 100 µM in the experiment on TK-10 renal; greater than 100 µM in the experiment on HCT-116 colon; 0.972 µM in the experiment with SK-MEL-28 melanoma; 50 µM in the experiment on SR leukemia. For the same compound, the TGI in the experiment with ACHN renal was greater than 100 µM.

For `NS(=O)(=O)c1nnc(NC(=O)C23CC4CC(CC(C4)C2)C3)s1`, the TGI in the experiment with SNB-19 CNS, in the experiment on TK-10 renal, with HCC-2998 colon, with HCT-116 colon, in the experiment with SK-MEL-28 melanoma and in the experiment on SR leukemia was greater than 100 µM in each case. Besides, the TGI in the experiment on SW-620 colon and in the experiment on ACHN renal was greater than 100 µM each time.

For the compound `COc1cccc(C23CCCC(C2)NCC3Br)c1OC` (stereo not drawn), the TGI with SNB-19 CNS was greater than 100 µM; in the experiment on CCRF-CEM leukemia, 99.3 µM; with TK-10 renal, greater than 100 µM; in the experiment on HCT-116 colon, greater than 100 µM; in the experiment on SK-MEL-28 melanoma it was greater than 100 µM; with SR leukemia it was 83.1 µM. For the same compound, the results for the TGI with SW-620 colon and in the experiment with ACHN renal were greater than 100 µM and 73.8 µM, respectively.

With `COc1cc(-c2nc3ccc(N4CCN(C)CC4)cc3[nH]2)c(OC)c2[nH]c(COC(C)=O)nc12`, the TGI in the experiment on SNB-19 CNS was greater than 100 µM; in the experiment with CCRF-CEM leukemia it was greater than 100 µM; with TK-10 renal it was greater than 100 µM; in the experiment on HCT-116 colon, greater than 100 µM; in the experiment on SK-MEL-28 melanoma, greater than 100 µM; in the experiment with SR leukemia, 73 µM. For the same compound, the TGI in the experiment on SW-620 colon and in the experiment on ACHN renal was greater than 100 µM in each case.

With `COc1cc(CSc2ccc(O)cc2)cc(OC)c1OC`, the TGI with SNB-19 CNS, in the experiment with TK-10 renal, with HCT-116 colon, in the experiment on SK-MEL-28 melanoma, with SR leukemia and in the experiment with SW-620 colon was greater than 100 µM in each case. The compound also registered a TGI with ACHN renal greater than 100 µM.

Regarding `COC(=O)C1CCC(=O)N1C(c1cc(OC)c(OC)c(OC)c1)c1cc(OC)c(OC)c(OC)c1` (stereo not drawn), the TGI in the experiment on SNB-19 CNS, in the experiment on TK-10 renal, with HCT-116 colon, in the experiment on SK-MEL-28 melanoma, with SR leukemia and in the experiment on SW-620 colon was greater than 100 µM in each case. The compound also gave a TGI with ACHN renal greater than 100 µM.

As for `Cc1cccc(Br)[n+]1[O-]`, the TGI in the experiment on SNB-19 CNS, with CCRF-CEM leukemia, with TK-10 renal, in the experiment on HCT-116 colon, in the experiment on SK-MEL-28 melanoma and with SR leukemia was greater than 100 µM in each case. The TGI in the experiment with SW-620 colon and in the experiment with ACHN renal was greater than 100 µM each time.

Consider `COc1ccccc1Cc1ccc(C2C=CC3(CC(=O)C=C3C)C(=O)C2)o1` (stereo not drawn), for which the TGI with SNB-19 CNS was greater than 100 µM; in the experiment with TK-10 renal, greater than 100 µM; in the experiment on HCC-2998 colon, greater than 100 µM; with HCT-116 colon, 89.6 µM; in the experiment with SK-MEL-28 melanoma, greater than 100 µM; in the experiment with SR leukemia, 43.9 µM. In addition, the TGI was 40.7 µM in the experiment with SW-620 colon and greater than 100 µM with ACHN renal.

Regarding `COc1ccc(/C(C)=N/NC(=O)c2ccncc2)c(OC)c1`, the TGI with CCRF-CEM leukemia, in the experiment with TK-10 renal, in the experiment with HCC-2998 colon, in the experiment with SK-MEL-28 melanoma, in the experiment with SR leukemia and with SW-620 colon was greater than 10 µM each time.

On to `COc1cc(C2C3=C(COC3=O)Oc3cc4c(cc32)OCO4)ccc1O` (stereo not drawn), for which the TGI in the experiment with SNB-19 CNS is greater than 100 µM; in the experiment on CCRF-CEM leukemia, greater than 100 µM; in the experiment with TK-10 renal, greater than 100 µM; in the experiment with HCC-2998 colon, 6.34 µM; with HCT-116 colon, greater than 48.3 µM; in the experiment on SK-MEL-28 melanoma it was greater than 100 µM. In addition, the TGI in the experiment on SW-620 colon was greater than 100 µM; in the experiment on ACHN renal it was greater than 94.7 µM.

`COc1cc(OC)cc(-c2ccc(-c3ccc(C(=N)N)cn3)o2)c1`: the GI50 with CCRF-CEM leukemia is 2.06 µM; in the experiment with TK-10 renal, 1.79 µM; with SK-MEL-28 melanoma it was 1.65 µM; in the experiment on SR leukemia it was 1.73 µM; in the experiment with SW-620 colon it was 1.67 µM; with ACHN renal it was 1.71 µM. Besides, the TGI in the experiment on CCRF-CEM leukemia came to 4.6 µM; in the experiment with TK-10 renal, 3.26 µM; with SK-MEL-28 melanoma, 3.16 µM; with SR leukemia, 3.96 µM; with SW-620 colon, 3.25 µM; in the experiment on ACHN renal it was 3.16 µM.

As to `N#CC(N=Nc1ccccc1C(=O)O)C(N)=O` (stereo not drawn), the TGI in the experiment on SNB-19 CNS, in the experiment on CCRF-CEM leukemia, in the experiment with TK-10 renal, with HCT-116 colon, with SK-MEL-28 melanoma and in the experiment with SR leukemia was greater than 100 µM each time. The TGI in the experiment on SW-620 colon and with ACHN renal was greater than 100 µM in each case.

As for `Clc1cccc(-c2sc(-c3ccsc3)cc2Cc2ccsc2)c1`, the TGI with CCRF-CEM leukemia, with TK-10 renal, in the experiment with HCC-2998 colon, in the experiment with SK-MEL-28 melanoma, in the experiment on SR leukemia and in the experiment on SW-620 colon was greater than 10 µM throughout.

`CC(=O)Oc1cc(S(=O)(=O)Nc2n[nH]c(Nc3ccc(C)cc3)n2)c(S)cc1Cl`: the TGI with SNB-19 CNS, with CCRF-CEM leukemia, in the experiment with TK-10 renal, with HCT-116 colon, in the experiment on SK-MEL-28 melanoma and in the experiment with SR leukemia was greater than 100 µM in each case. The TGI with SW-620 colon and with ACHN renal was greater than 100 µM throughout.

`CCOC(=O)NN(C(=O)OCC)C(C(=O)C1=CCCCC1)N(NC(=O)OCC)C(=O)OCC`: the TGI in the experiment with SNB-19 CNS, in the experiment on TK-10 renal, in the experiment with HCC-2998 colon, in the experiment on HCT-116 colon, in the experiment with SK-MEL-28 melanoma and with SR leukemia was greater than 100 µM each time. In addition, the TGI with SW-620 colon and in the experiment with ACHN renal was greater than 100 µM in each case.

In the case of `COc1cc(C)c(/C=C2/N=C(c3ccccc3)OC2=O)c([N+](=O)[O-])c1OC`, the TGI with SNB-19 CNS, in the experiment with CCRF-CEM leukemia, with TK-10 renal, in the experiment on HCC-2998 colon, with HCT-116 colon and with SK-MEL-28 melanoma was greater than 100 µM each time. In addition, the TGI in the experiment with SW-620 colon and in the experiment with ACHN renal was greater than 100 µM each time.
